From BindingDB's records for doi:10.1016/j.bmc.2019.07.003 (Tokyo Medical and Dental University, 2019)

Test: Transactivation of VDR in human Macrophage-like cell assessed as cell differentiation measured after 4 days by NBT dye-based assay

EC50: 1200 nM
SMILES: C[C@H](CCC(=O)O)[C@H]1CC[C@H]2[C@@H]3CC[C@@H]4C[C@H](OS(C)(=O)=O)CC[C@]4(C)[C@H]3CC[C@]12C
